In patent publication US20150119399A1, “BETA-CELL REPLICATION PROMOTING COMPOUNDS AND METHODS OF THEIR USE” (President and Fellows of Harvard College, priority 2012, published 2015):
Entries after “also recorded” stand apart in the source; their conditions may differ. Read-outs that look alike come from different tables or passages of the source.

Assays:
alpha-cells = assay: alpha-cell replication in dissociated rat islet cells (glucagon/ki-67 imaging); type: cell-based; conditions: compound for 48 hours
Description: (§1) Rat islets were isolated and plated as previously described. In brief, rat islets were disassociated using 0.25% trypsin to obtain single cell suspension with occasional clusters of 2-3 cells. These cells were then plated in a 96-well format at a density of 80 k cells/well. The wells were pre-treated with conditioned media produced by the rat bladder carcinoma cell line 804G. After 48-hours, the cells were treated with compound at the indicated concentration or vehicle alone for 48 hours. The cells were then fixed and stained as previously described for the beta-cell marker PDX-1 and the replication marker ki-67. The beta-cell replication rate (the percentage of PDX-1^+ Cells that co-expressed ki-67) was quantified via automated imaging acquisition and analysis using a Cellomic ArrayScan. Each experimental was performed in replicas of four. p-values indicate a 2-tailed T-Test.
(§2) To quantify beta-cell replication rate, cells were identified as beta-cells if the contained both nuclear PDX-1 expression and cytoplasmic insulin staining. Replicating beta-cells were identified by the co-staining for ki-67. Alpha-cell replication was determined by determining the fraction of alpha-cells that co-expressed ki67. An alpha-cell was defined by the presence of cytoplasmic glucagon staining and the absence of nuclear PDX-1 staining. The fraction of dividing alpha-cells was determined by the proportion of alpha cells that co-expressed ki-67.

beta-cells = assay: beta-cell replication in dissociated rat islet cells (PDX-1/ki-67 imaging); type: cell-based; conditions: compound for 48 hours, relative to vehicle/DMSO control
Description: as §1, §2

GLP-1R signaling = assay: glucose tolerance via GLP-1R signaling; conditions: FIGS. 15A-15C
recombinant PDE5 = recombinant PDE5 (Homo sapiens, UniProt O76074); conditions: in vitro selectivity assay using recombinant PDE
Source text: Rows list the PDE inhibitors. Columns list the recombinant human PDE enzymes.

diabetic DB mice = assay: glucose tolerance in diabetic DB mice; type: in vivo, mouse; conditions: for glucose tolerance: compound by itself
isolated rat islets = assay: in vitro islet insulin secretion assay, rat islets; conditions: for islet insulin secretion: isolated rat islets
wild-type mice [1] = assay: plasma GLP-1 levels in vivo; conditions: 30 minutes after treatment, 0.3 mg/kg Tadalafil, 0.25 mg/kg Dipyridamole, 0.45 mg/kg Vardenafil
wild-type mice [2] = assay: glucose tolerance in wild-type mice; type: in vivo, mouse
human islets = assay: in vitro islet insulin secretion assay, human islets; type: cell-based
[3] = tested on: primary intestinal crypt culture; assay: endogenous GLP-1 secretion in primary intestinal crypt culture; conditions: compared to control
[4] = tested on: diet-induced obesity (DIO) mice; assay: glucose tolerance in diet-induced obesity (DIO) mice; type: in vivo; conditions: diet-induced obesity (DIO) mouse model of human diabetes
[5] = plasma insulin levels in vivo after intraperitoneal glucose; conditions: 30 minutes after treatment and intraperitoneal (IP) delivery of glucose, compared to DMSO
[6] = co-administered with DPP-4 inhibitor Sitagliptin, wild-type mice (FIG. 11), Tadalafil data not shown
[7] = wild-type mice, compound by itself
[8] = wild-type mice, in combination with Exendin-4

SMILES	alpha-cell replication (fraction of alpha-cells that co-expressed ki67) (alpha-cells)	beta-cell replication (percentage of PDX-1+ cells that co-expressed ki-67) (beta-cells)	glucose tolerance via GLP-1R signaling (GLP-1R signaling)	islet insulin secretion (isolated rat islets)	plasma GLP-1 levels (wild-type mice [1])	glucose tolerance / blood glucose levels (wild-type mice [2]; [6])	glucose tolerance (wild-type mice [2]; [7])	glucose tolerance / blood glucose levels (wild-type mice [2]; [8])	further results
CN(C(=O)CCCOc1ccc2[nH]c(=O)ccc2c1)C1CCCCC1 [Cilostamide]	enhanced alpha-cell replication	enhanced beta-cell replication	–	–	–	–	–	–	–
COc1cc2c(cc1OC)-c1c/c(=N\c3c(C)cc(C)cc3C)n(C)c(=O)n1CC2 [Trequinsin]	enhanced alpha-cell replication	enhanced beta-cell replication	–	–	–	–	–	–	–
COc1cc(-c2ccc(=O)[nH]n2)ccc1OC(F)F [Zardaverine, 6-[4-(Difluoromethoxy)-3-methoxyphenyl]-3(2H)-pyridazinone]	enhanced alpha-cell replication	enhanced beta-cell replication	–	–	–	–	–	–	–
OCCN(CCO)c1nc(N2CCCCC2)c2nc(N(CCO)CCO)nc(N3CCCCC3)c2n1 [Dipyridamole, 2,6-bis-(diethanolamino)-4,8-dipiperidino-(5,4-d)-pyrimidine]	does not; also recorded: did not	enhanced beta-cell replication; also recorded: double replication effect	improve glucose tolerance via GLP-1R signaling	significantly enhanced insulin secretion	significantly increase plasma GLP-1 levels	acts in concert with dipeptidyl peptidase-4 (DPP-4) inhibitor Sitagliptin to improve glucose tolerance; also recorded: act in concert with Sitagliptin to improve glucose tolerance and lower blood glucose levels	enhances glucose tolerance	enhances glucose tolerance; also recorded: acts additively with Exendin-4 to lower blood glucose levels	beta-cell replication (percentage of PDX-1+ cells that co-expressed ki-67) (beta-cells; listed as Dioyridamole): enhanced beta-cell replication; inhibition of PDE5 (inhibitor class) (recombinant PDE5): effective inhibitor (the inhibitor exhibits at least 50% inhibition of enzymatic activity in an in vitro selectivity assay using a recombinant PDE); glucose tolerance (diabetic DB mice): enhances glucose tolerance; glucose tolerance (diabetic DB mice; listed as dipyridamole): improves glucose tolerance; glucose tolerance / blood glucose levels (diabetic DB mice; in combination with Exendin-4): enhances glucose tolerance; also recorded: acts additively with Exendin-4 to lower blood glucose levels; glucose tolerance / blood glucose levels (diabetic DB mice; in combination with Exendin-4, listed as dipyridamole): enhances glucose tolerance; islet insulin secretion (isolated rat islets; listed as dipyridamole): enhances insulin secretion; effect of Exendin-4 on glucose-stimulated insulin secretion (isolated rat islets; rat islets, in combination with Exendin-4): enhances the effect of Exendin-4 on glucose-stimulated insulin secretion; glucose tolerance (wild-type mice [2]; wild-type mice, compound by itself, listed as dipyridamole): improves glucose tolerance; glucose tolerance / blood glucose levels (wild-type mice [2]; wild-type mice, in combination with Exendin-4, listed as dipyridamole): enhances glucose tolerance; glucose tolerance (wild-type mice [2]; wild-type mice, oral administration): improves glucose tolerance; islet insulin secretion (human islets): significantly enhanced insulin secretion; effect of Exendin-4 on glucose-stimulated insulin secretion (human islets; in combination with Exendin-4): enhances the effect of Exendin-4 on glucose-stimulated insulin secretion; islet insulin secretion (human islets; listed as dipyridamole): enhances insulin secretion; endogenous GLP-1 secretion [3]: at least about twice
CN1CC(=O)N2[C@H](c3ccc4c(c3)OCO4)c3[nH]c4ccccc4c3C[C@@H]2C1=O [Tadalafil, (6R-trans)-6-(1,3-benzodioxol-5-yl)-2,3,6,7,12,12a-hexahydro-2-methyl-pyrazino[1′,2′:1,6]pyrido[3,4-b]indole-1,4-dione]	–	did not increase beta-cell replication	improve glucose tolerance via GLP-1R signaling	do not enhance islet insulin secretion; also recorded: Neither Tadalafil (FIG. 4A) nor Vardenafil (FIG. 4B) significantly enhanced insulin secretion	significantly increase plasma GLP-1 levels	act in concert with Sitagliptin to improve glucose tolerance and lower blood glucose levels	improves glucose tolerance	acts additively with Exendin-4 to lower glucose levels	glucose tolerance [4]: improves glucose tolerance; plasma insulin levels [5]: increased plasma insulin levels; also recorded: significantly increase plasma insulin levels
